Experimental data from US20250154193A1, “STEROID COMPOUND, AND PREPARATION METHOD THEREFOR AND APPLICATION THEREOF” (CHOLESGEN (SHANGHAI) CO., LTD., priority 2022, published 2025).

How the values were obtained:
SREBP pathway = assay: SREBP luciferase reporter gene system (SRE-luciferase assay) in Huh-7/SRE-Luc cells; assay type: cell-based; details: Homo sapiens, sterol-deficient medium, compound treatment 16 hours, luciferase/GFP ratio
In short: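 Huh-7 cells stably carrying an LDLR promoter (SRE)-luciferase and GFP were treated for 16 hours in sterol-deficient medium (5% lipoprotein-deficient serum, 2 μM lovastatin, 10 μM mevalonate) at […] compound, with DMSO vehicle. IC50 derived from the ratio of luciferase activity to GFP fluorescence.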

[1] = Liver microsomal metabolic stability assay; assay type: in vitro ADME; details: rat liver microsomes, NADPH, 37° C., 0-60 minutes; read-out: Rat microsomal metabolic half-life (t1/2)
Procedure: PBS solution (100 mM), MgCl2 solution (100 mM), and NADPH solution (20 mM) were prepared respectively. Compound and testosterone (positive control) stock solutions were then prepared with dimethyl sulfoxide (DMSO), diluted to 100 µM with methanol for sample incubation, and stored at −10 to −30° C. 12.5 μL of rat liver microsomes (purchased from XenoTech, Cat. No.: R1000, Lot No.: 1310030, specification: 20 mg/mL), 432.5 µL of PBS solution (100 mM), 25 µL of NADPH solution (20 mM), and 25 μL of MgCl2 solution (100 mM) were added to a 96-well plate, mixed well, and pre-incubated at 37° C. for 5 minutes. 5 µL of substrate (test compound) solution was added to start the reaction. At specified time points of 0, 5, 15, 30, 45, and 60 minutes (0 and 60 minutes for the negative control group), 50 µL of the incubated samples were added to a stop plate containing 100 µL of ice-cold stop solution, vortexed for 1 minute to inactivate the reaction, and stored at −60 to −90° C. for subsequent analysis. Sample analysis of the test compound and the control compound testosterone was performed using LC-MS/MS method. Chromatographic peaks were integrated, calculated, and processed using Analyst software. Semi-quantitative analysis was performed for both the test compound and the control compound testosterone by calculating peak area ratios.

liver organoids = assay: Real-time quantitative PCR of lipogenesis- and fibrosis-related genes in fatty liver organoids; assay type: cell-based, mice; details: mouse fatty liver organoids, 1 and 3 μM, 72 hours, qPCR
Excerpt: Liver samples or liver organoid samples were homogenized in TRI Reagent (T9424, Sigma), and total RNA was extracted according to the manufacturer's instructions. Equal amounts of RNA template were used to synthesize cDNA with oligo dT primers and MLV reverse transcriptase (Promega). Quantitative data for genes were collected using the Bio-Rad CFX96 real-time PCR system, and the relative amount of gene mRNA was quantified using the comparative CT method.
C57BL/6N mice were fed with fatty liver-inducing diet (TrophicDiet, TP2630052A, containing 10.2% kcal protein, 37.3% kcal carbohydrate, and 52.6% kcal fat) and fructose-containing drinking water (23.1 g of fructose and 18.9 g of dextrose were dissolved in 1 L of water, then filtered and sterilized) for a total of 16 weeks starting at 12 weeks of age to generate a fatty liver model. To generate fatty liver organoids, liver tissues from mice with fatty liver were minced and digested in digestion buffer at 37° C. for 30 to 60 minutes. The digestion buffer included DMEM/F-12 (Cytiva, SH30023.01), 2.5 mg/mL collagenase D (Roche, COLLD-RO), and 0.1 mg/mL DNaseI (Sigma-Aldrich, DN25). […]
To distinguish whether the inhibitory effect of 25-hydroxylanosterol is directly based on its effect on the liver or a systemic effect, we utilized 3D liver organoids as an in vitro model for the study of fatty liver to analyze the effect of 25-hydroxylanosterol on lipogenesis and fibrosis marker expression in liver organoids. […] RNA from the organoids was collected and analyzed for the differential expression of lipogenesis-related genes (Hmgcs, Hmgcr, SCD1, and FASN) and fibrosis markers (αSMA and Colla1) using fluorescent real-time quantitative PCR.
In FIGS. 35 and 36, data are represented as mean±standard deviation. P values were calculated using one-way ANOVA; ns indicates no statistical difference; * indicates P<0.05; ** indicates P<0.01; *** indicates P<0.001. In FIGS. 47 and 53, quantitative analysis was performed using ImageJ software. […] P values were calculated using one-way ANOVA; * indicates P<0.05; ** indicates P<0.01; *** indicates P<0.001.

COc1cc(F)ccc1C(O)CCC[C@@H](C)[C@H]1CC[C@H]2[C@@H]3CC[C@H]4[C@@H](O)[C@@H](O)CC[C@]4(C)[C@H]3CC[C@]12C (stereo partly drawn) [compound 306, 24-[(4-fluoro-2-methoxyphenyl)(hydroxy)methyl]-5α-cholan-3β,4β-diol]
IC50 (SREBP pathway): 0.08 µM | half-life at 1 µM [1]: 1.74 h

C[C@H](CCCC(O)c1ccccc1OC(F)(F)F)[C@H]1CC[C@H]2[C@@H]3CC[C@H]4[C@@H](O)[C@@H](O)CC[C@]4(C)[C@H]3CC[C@]12C (stereo partly drawn) [compound 317, 24-(hydroxy{2-[(trifluoromethyl)oxy]phenyl}methyl)-5α-cholan-3β,4β-diol]
IC50 (SREBP pathway): 0.14 µM | half-life at 1 µM [1]: 2.28 h

CC[C@H]1[C@@H](O)[C@@H]2[C@H](CC[C@]3(C)[C@@H]([C@H](C)CCC(=O)O)CC[C@@H]23)[C@@]2(C)CC[C@@H](O)C[C@@H]12 [obeticholic acid, Obeticholic acid, reference compound]
expression levels of lipogenesis-related genes (Hmgcs, Hmgcr, SCD1, and FASN) (liver organoids): failed to inhibit
